Reference: patent publication US20100099677A1, “Compounds, Compositions and Methods Comprising Thiazole Derivatives” (Institute for OneWorld Health, priority 2008, published 2010)

Molecular target: T1, CFTR (Homo sapiens, UniProt P13569)
T1 construct: results in the phosphorylation and opening of CFTR anion channels; host or cells: Human colonic T84 cells
Assay: T84 assay (FLIPR membrane potential dye, forskolin/IBMX-stimulated CFTR channel activity)
Format: cell-based
Details: human colonic T84 cells, average of at least 2 runs unless otherwise indicated
Description: (§1) For example, Human colonic T84 cells can be acquired from the European Collection of Cell Cultures (ECACC) and grown in standard culture conditions as described by the supplier. On the day before assay 25,000 T84 cells per well are plated into standard black walled, clear bottom 384-well assay plates in standard growth medium consisting of DMEM:F12 with 10% FBS and incubated overnight. On the day of the assay the plates are washed using a standard assay buffer (HBSS with 10 mM Hepes) and incubated for 15 minutes in serum free cell culture medium before the addition of a commercially available membrane potential sensitive fluorescent dye (FLIPR Red membrane potential dye, Molecular Devices Corporation). T84 cells are incubated with the FLIPR Red membrane potential dye for 45 minutes in the presence and absence of test compound before being transferred to a commercially available fluorescence imaging plate reader (FLIPR384, Molecular Devices Corporation). Fluorescence levels are monitored continuously every second for 150 seconds; after an initial 10 second baseline, CFTR channel activity is stimulated through the addition of 10 μM forskolin in the presence of 100 μM of the phosphodiesterase inhibitor iso-butyl-methylxanthine (IBMX). Addition of the forskolin leads to the activation of intracellular adenylyl cylase 1, elevating cAMP levels and results in the phosphorylation and opening of CFTR anion channels. CFTR channel opening causes chloride ion efflux and subsequent depolarization of the cells, which is measured by an increase in fluorescence. CFTR inhibitor compounds prevent cell depolarization and the associated increase in fluorescence.
as §1, with “Human colonic” for “For example, Human colonic”, “T84 cells are acquired from” for “T84 cells can be acquired from”, “(ECACC) and are grown in” for “(ECACC) and grown in”

T1 sequence (P13569 whole entry): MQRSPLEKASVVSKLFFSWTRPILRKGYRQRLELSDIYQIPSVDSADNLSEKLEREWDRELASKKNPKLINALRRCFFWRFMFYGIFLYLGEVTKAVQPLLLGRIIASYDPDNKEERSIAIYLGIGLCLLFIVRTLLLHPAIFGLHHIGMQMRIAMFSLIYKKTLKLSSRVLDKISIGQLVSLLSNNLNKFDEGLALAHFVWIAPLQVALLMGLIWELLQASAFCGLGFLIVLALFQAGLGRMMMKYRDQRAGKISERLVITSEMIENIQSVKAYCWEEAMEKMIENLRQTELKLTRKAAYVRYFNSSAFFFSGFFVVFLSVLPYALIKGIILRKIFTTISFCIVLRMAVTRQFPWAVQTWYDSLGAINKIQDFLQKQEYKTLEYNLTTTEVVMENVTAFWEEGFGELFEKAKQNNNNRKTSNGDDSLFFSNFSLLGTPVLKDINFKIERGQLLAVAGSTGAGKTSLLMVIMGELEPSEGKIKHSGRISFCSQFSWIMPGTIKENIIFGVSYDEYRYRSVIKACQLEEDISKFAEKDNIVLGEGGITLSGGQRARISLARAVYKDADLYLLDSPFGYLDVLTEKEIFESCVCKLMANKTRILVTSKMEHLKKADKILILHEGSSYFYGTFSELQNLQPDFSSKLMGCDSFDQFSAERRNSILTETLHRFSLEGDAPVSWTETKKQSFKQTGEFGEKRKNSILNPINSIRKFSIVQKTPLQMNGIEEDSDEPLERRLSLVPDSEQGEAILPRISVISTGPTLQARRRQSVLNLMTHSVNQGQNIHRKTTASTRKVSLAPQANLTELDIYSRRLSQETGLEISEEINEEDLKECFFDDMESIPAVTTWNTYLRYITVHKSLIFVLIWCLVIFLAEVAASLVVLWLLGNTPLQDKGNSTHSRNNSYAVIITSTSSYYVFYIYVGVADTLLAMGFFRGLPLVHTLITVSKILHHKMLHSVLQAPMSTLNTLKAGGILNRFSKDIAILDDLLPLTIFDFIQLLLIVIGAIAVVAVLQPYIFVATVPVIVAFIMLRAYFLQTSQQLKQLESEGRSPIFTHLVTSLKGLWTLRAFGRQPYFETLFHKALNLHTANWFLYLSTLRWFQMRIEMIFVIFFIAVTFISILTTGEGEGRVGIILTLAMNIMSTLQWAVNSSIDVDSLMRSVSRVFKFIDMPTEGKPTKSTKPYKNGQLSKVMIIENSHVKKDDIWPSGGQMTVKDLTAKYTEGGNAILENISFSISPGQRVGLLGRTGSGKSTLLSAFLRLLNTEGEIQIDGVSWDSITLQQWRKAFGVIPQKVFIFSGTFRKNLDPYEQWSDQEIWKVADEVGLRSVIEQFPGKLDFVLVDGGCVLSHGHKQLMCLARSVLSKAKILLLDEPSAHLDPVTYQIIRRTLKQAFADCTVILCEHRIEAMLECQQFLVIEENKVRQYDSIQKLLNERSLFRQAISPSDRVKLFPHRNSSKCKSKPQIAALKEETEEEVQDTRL

| IC50 [µM] | SMILES |
| --- | --- |
| 4.78 | O=C(c1nc(-c2cc(Br)c(O)c(Br)c2O)cs1)N1CCC(Cc2ccccc2)CC1 [Compound 68, (4-Benzylpiperidin-1-yl)(4-(3,5-dibromo-2,4-dihydroxyphenyl)thiazol-2-yl)methanone] |
| 6.51 | O=C(NC(c1ccccc1)c1ccccc1)c1nc(-c2cc(Cl)c(O)c(Cl)c2)cs1 [Compound 69, N-Benzhydryl-4-(3,5-dichloro-4-hydroxyphenyl)thiazole-2-carboxamide] |
| 9.24 | O=C(NC(c1ccccc1)c1ccccc1)c1nc(-c2cc(Br)c(O)c(Br)c2)cs1 [Compound 71, N-Benzhydryl-4-(3,5-dibromo-4-hydroxyphenyl)thiazole-2-carboxamide] |
| 23.9 | O=C(NCc1ccc(Oc2ccccc2)cc1)c1nc(-c2cc(Br)c(O)c(Br)c2)cs1 [Compound 75, 4-(3,5-Dibromo-4-hydroxyphenyl)-N-(4-phenoxybenzyl)thiazole-2-carboxamide] |
| 29.5 | O=C(NCc1ccc(Oc2ccccc2)cc1)c1nc(-c2cc(Cl)c(O)c(Cl)c2)cs1 [Compound 76, 4-(3,5-Dichloro-4-hydroxyphenyl)-N-(4-phenoxybenzyl)thiazole-2-carboxamide] |
| 2.56 | O=C(NCc1cccc(OC(F)(F)F)c1)c1nc(-c2cc(Br)c(O)c(Br)c2O)cs1 [Compound 78, 4-(3,5-dibromo-2,4-dihydroxyphenyl)-N-(3-(trifluoromethoxy)benzyl)thiazole-2-carboxamide] |
| 11.5 | O=C(NCc1ccc(Oc2ccccc2)cc1)c1nc(-c2cc(Br)c(O)c(Br)c2O)cs1 [Compound 79, 4-(3,5-dibromo-2,4-dihydroxyphenyl)-N-(4-phenoxybenzyl)thiazole-2-carboxamide] |
| 4.22 | O=C(NCC(c1ccccc1)c1ccccc1)c1nc(-c2cc(Br)c(O)c(Br)c2O)cs1 [Compound 81, 4-(3,5-dibromo-2,4-dihydroxyphenyl)-N-(2,2-diphenylethyl)thiazole-2-carboxamide] |

More lines, now with the values behind:

| SMILES | IC50 [µM] |
| --- | --- |
| CN(Cc1cccc(C(F)(F)F)c1)C(=O)c1nc(-c2cc(Cl)c(O)c(Cl)c2)cs1 [Compound 67, 4-(3,5-Dichloro-4-hydroxyphenyl)-N-methyl-N-(3-(trifluoromethyl)benzyl)thiazole-2-carboxamide] | 4.04 |
| O=C(c1nc(-c2cc(Cl)c(O)c(Cl)c2)cs1)N1CCC(Cc2ccccc2)CC1 [Compound 70, (4-benzylpiperidin-1-yl)(4-(3,5-dichloro-4-hydroxyphenyl)thiazol-2-yl)methanone] | 8.95 |
| O=C(c1nc(-c2cc(Br)c(O)c(Br)c2)cs1)N1CCC(Cc2ccccc2)CC1 [Compound 72, (4-Benzylpiperidin-1-yl)[4-(3,5-dibromo-4-hydroxyphenyl)thiazol-2-yl]methanone] | 11.1 |
| O=C(c1nc(-c2cc(Br)c(O)c(Br)c2)cs1)N1CCN(c2cccc(C(F)(F)F)c2)CC1 [Compound 73, (4-(3,5-Dibromo-4-hydroxyphenyl)thiazol-2-yl)(4-(3-(trifluoromethyl)phenyl)piperazin-1-yl)methanone] | 12.3 |
| O=C(c1nc(-c2cc(Cl)c(O)c(Cl)c2)cs1)N1CCN(c2cccc(C(F)(F)F)c2)CC1 [Compound 74, (4-(3,5-Dichloro-4-hydroxyphenyl)thiazol-2-yl)(4-(3-(trifluoromethyl)phenyl)piperazin-1-yl)methanone] | 20 |
| O=C(NCc1cccc(OC(F)(F)F)c1)c1csc(-c2cc(Cl)c(O)c(Cl)c2)n1 [Compound 80, 2-(3,5-Dichloro-4-hydroxyphenyl)-N-(3-(trifluoromethoxy)benzyl)thiazole-4-carboxamide] | 15 |
| O=C(c1nc(-c2cc(Br)c(O)c(Br)c2O)cs1)N1CCN(c2cccc(C(F)(F)F)c2)CC1 [Compound 82, (4-(3,5-dibromo-2,4-dihydroxyphenyl)thiazol-2-yl)(4-(3-(trifluoromethyl)phenyl)piperazin-1-yl)methanone] | 12.6 |
| CCOC(=O)CCCOc1c(-c2csc(C(=O)N3CCC(Cc4ccccc4)CC3)n2)cc(Br)c(O)c1Br [Compound 83, Ethyl 4-(6-(2-(4-benzylpiperidine-1-carbonyl)thiazol-4-yl)-2,4-dibromo-3-hydroxyphenoxy)butanoate] | 4.2 |
| O=C(c1nc(-c2cc(Br)c(O)c(Br)c2OCCN2CCOCC2)cs1)N1CCC(Cc2ccccc2)CC1 [Compound 86, (4-benzylpiperidin-1-yl)(4-(3,5-dibromo-4-hydroxy-2-(2-morpholinoethoxy)phenyl)thiazol-2-yl)methanone] | 3.03 |
| COCCOCCOc1c(-c2csc(C(=O)N3CCC(Cc4ccccc4)CC3)n2)cc(Br)c(O)c1Br [Compound 87, (4-benzylpiperidin-1-yl)(4-(3,5-dibromo-4-hydroxy-2-(2-(2-methoxyethoxy)ethoxy)phenyl)thiazol-2-yl)methanone] | 1.73 |
| Cc1cccc(COc2c(-c3csc(C(=O)N4CCC(Cc5ccccc5)CC4)n3)cc(Br)c(O)c2Br)n1 [Compound 88, (4-benzylpiperidin-1-yl)(4-(3,5-dibromo-4-hydroxy-2-((6-methylpyridin-2-yl)methoxy)phenyl)thiazol-2-yl)methanone] | 15.5 |
| O=C(O)CCCOc1c(-c2csc(C(=O)N3CCC(Cc4ccccc4)CC3)n2)cc(Br)c(O)c1Br [Compound 89, 4-(6-(2-(4-Benzylpiperidine-1-carbonyl)thiazol-4-yl)-2,4-dibromo-3-hydroxyphenoxy)butanoic acid] | 8.79 |
